Assay results published in ChEMBL document CHEMBL5352495, “Development of novel pyrazole, imidazo[1,2-b]pyrazole, and pyrazolo[1,5-a]pyrimidine derivatives as a new class of COX-2 inhibitors with immunomodulatory potential” (Eur J Med Chem, 2023).

How the values were obtained:
[1] = target: T1, Prostaglandin G/H synthase 2 (Homo sapiens, UniProt P35354)
T1 sequence (P35354 whole entry): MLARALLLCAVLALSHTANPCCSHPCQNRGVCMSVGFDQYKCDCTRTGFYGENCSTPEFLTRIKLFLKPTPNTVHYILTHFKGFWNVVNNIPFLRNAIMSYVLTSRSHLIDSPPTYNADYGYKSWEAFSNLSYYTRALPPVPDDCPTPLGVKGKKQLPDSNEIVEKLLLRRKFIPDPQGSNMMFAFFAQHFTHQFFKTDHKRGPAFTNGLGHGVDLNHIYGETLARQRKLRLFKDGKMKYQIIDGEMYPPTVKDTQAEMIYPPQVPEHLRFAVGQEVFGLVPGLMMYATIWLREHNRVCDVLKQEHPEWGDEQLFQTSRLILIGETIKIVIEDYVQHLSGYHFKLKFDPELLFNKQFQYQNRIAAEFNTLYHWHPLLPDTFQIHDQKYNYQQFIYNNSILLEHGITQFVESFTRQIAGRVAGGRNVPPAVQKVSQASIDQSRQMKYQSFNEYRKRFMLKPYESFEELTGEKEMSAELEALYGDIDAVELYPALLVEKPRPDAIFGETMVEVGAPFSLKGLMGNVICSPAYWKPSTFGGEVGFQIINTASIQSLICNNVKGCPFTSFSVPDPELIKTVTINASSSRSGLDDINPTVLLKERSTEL
Description: Inhibition of COX-2 (unknown origin) incubated for 5 to 10 mins by fluorometric analysis

RAW264.7 [2] = assay: Anti-inflammatory activity against LPS-stimulated mouse RAW264.7 cells assessed as inhibition of TNF alpha expression at 10 ug by qRT-PCR analysis relative to control; assay type: functional; parameters: scale not given: the % may be the effect or the level left; conditions: dose 10 µg
RAW264.7 [3] = assay: Anti-inflammatory activity against LPS-stimulated mouse RAW264.7 cells assessed as inhibition of IL-6 expression at 10 ug by qRT-PCR analysis relative to control; assay type: functional; parameters: scale not given: the % may be the effect or the level left; conditions: dose 10 µg

Row | SMILES | IC50 [1] [µM] | Activity (RAW264.7 [2]) [%] | Activity (RAW264.7 [3]) [%]
1 | COC(=O)c1cc(=O)n2nc(N)c(/N=N/c3ccc(O)cc3)c2[nH]1 | 67.5 |  | 
2 | Nc1nn2c(-c3cccs3)cc(-c3cccs3)nc2c1/N=N/c1ccc(O)cc1 | 3.37 | 59.2 | 70.3
3 | CC1=Nc2c(/N=N/c3ccc(O)cc3)c(N)nn2C1=O | 295 |  | 
4 | CC(=O)Nc1nn2c(NC(C)=O)cc(=O)[nH]c2c1/N=N/c1ccc(O)cc1 | 15.9 |  | 
5 | Cc1cc(=O)n2nc(N)c(/N=N/c3ccc(O)cc3)c2[nH]1 | 5.68 | 63.1 | 65.8
6 | COc1ccc(-c2nc3c(/N=N/c4ccc(O)cc4)c(N)nn3c(N)c2C#N)cc1 | 21.1 |  | 
7 | Nc1n[nH]c(/N=C2/C(=O)Nc3ccc(S(=O)(=O)N4CCCC4)cc32)c1/N=N/c1ccc(O)cc1 | 36.5 |  | 
8 | CCOC(=O)C1=Nc2c(/N=N/c3ccc(O)cc3)c(N)nn2C1=O | 79.3 |  | 
9 | CCOC(=O)CC(=O)Nc1[nH]nc(N)c1/N=N/c1ccc(O)cc1 | 125 |  | 
10 | Nc1n[nH]c(N=c2c(=O)c3ccccc3c2=O)c1/N=N/c1ccc(O)cc1 | 61.4 |  | 
11 | N#Cc1c(-c2ccccc2Cl)nc2c(/N=N/c3ccc(O)cc3)c(N)nn2c1N | 84.8 |  | 
12 | Cc1cc(C)n2nc(N)c(/N=N/c3ccc(O)cc3)c2n1 | 46.3 |  | 
13 | Cc1ccc(-c2cc(C(F)(F)F)nn2-c2ccc(S(N)(=O)=O)cc2)cc1 [CELECOXIB] |  | 72.7 | 76.8
